Laboratory results published in US3949090A, “Methods and compositions for improving feed efficiency in ruminants using dithiooxamide” (SmithKline Corporation, priority 1974, dated 1976).

System: rumen microbial deamination
Assay: In vivo effects upon amino acid deamination in rumen fistulated cattle
Conditions: for Quantity of amino acids in the rumen: per rumen
Experimental: Rumen fistulated cattle were fed a pelleted 60% concentrate diet. To conduct the test, animals received ruminal doses of a mixture of free amino acids to provide 338 mMoles of total free amino acids (threonine 4.5 g., methionine 6.0 g., isoleucine 5.0 g., leucine 5.0 g., phenylalanine 6.5 g., lysine 7.5 g., histidine 8.5 g.), 50 g. of a soluble rumen marker, polyethylene glycol (PEG) and 0 to 4 g. dithiooxamide. Total amino acid concentration was determined by the procedure of Borchers [Anal. Chem., 31 (7): 1179]. Activity was assessed as changes, with respect to time, of the quantity of total free amino acids in the rumen. Inhibition of rumen microbial deamination results in a greater quantity of free amino acids in the rumen.
^1 Polyethylene glycol was used as a marker to estimate rumen volume
and correct for changes in amino acid concentration due to changes in
rumen volume during the six hour experiment.
^2 mMoles of amino acid per rumen.

Q: Which “Quantity of amino acids in the rumen” value (0.5 g dithiooxamide ruminal dose, 0 h after dosing, control 338) does the source give for NC(=S)C(N)=S [Dithiooxamide, dithiooxamide] here?
A: Its value is 338 mmol.

Q: What about the “Quantity of amino acids in the rumen” value (0.5 g dithiooxamide ruminal dose, 3 h after dosing, control 152) of the same compound?
A: Its value is 192 mmol.

Q: And the “Quantity of amino acids in the rumen” value (0.5 g dithiooxamide ruminal dose, 6 h after dosing, control 47)?
A: Its value is 78 mmol.

Q: What about the “Quantity of amino acids in the rumen” value (1.0 g dithiooxamide ruminal dose, 0 h after dosing, control 338) of the same compound?
A: Its value is 338 mmol.

Q: And the “Quantity of amino acids in the rumen” value (1.0 g dithiooxamide ruminal dose, 3 h after dosing, control 152)?
A: Its value is 198 mmol.

Q: And the “Quantity of amino acids in the rumen” value (1.0 g dithiooxamide ruminal dose, 6 h after dosing, control 47)?
A: The value was 162 mmol.

Q: And the “Quantity of amino acids in the rumen” value (2.0 g dithiooxamide ruminal dose, 0 h after dosing, control 338)?
A: The value was 338 mmol.

Q: What about the “Quantity of amino acids in the rumen” value (2.0 g dithiooxamide ruminal dose, 3 h after dosing, control 152) of the same compound?
A: Its value is 209 mmol.

Q: And the “Quantity of amino acids in the rumen” value (2.0 g dithiooxamide ruminal dose, 6 h after dosing, control 47)?
A: Its value is 218 mmol.

Q: And the “Quantity of amino acids in the rumen” value (4.0 g dithiooxamide ruminal dose, 0 h after dosing, control 338)?
A: The value was 338 mmol.

Q: And the “Quantity of amino acids in the rumen” value (4.0 g dithiooxamide ruminal dose, 3 h after dosing, control 152)?
A: The value was 270 mmol.

Q: And the “Quantity of amino acids in the rumen” value (4.0 g dithiooxamide ruminal dose, 6 h after dosing, control 47)?
A: Its value is 308 mmol.

Q: What about the “prevention of degradation of free amino acids in the rumen (in words)” value (Table IV) of the same compound?
A: The value was “effective agent in preventing his degradation and increasing the size of the pool of amino acids in the rumen”.
